Assay results published in US20240239755A1, “SUBSTITUTED PYRIDAZINONES, SALTS OR N-OXIDES THEREOF AND THEIR USE AS HERBICIDALLY ACTIVE SUBSTANCES” (Bayer Aktiengesellschaft, priority 2021, published 2024).

Tests used:
Type in all cases: in vivo
[1] = test system: Alopecurus myosuroides (ALOMY); assay: Herbicidal pre-emergence action, 1280 g/ha (Table A2); conditions: visual grading after ca. 3 weeks vs untreated controls
Source text: (§1) Seeds of mono- and dicotyledonous weed plants were sown in plastic pots (double sowings with one species of mono- and one species of dicotyledonous weed plants per pot), in sandy loam, and covered with soil. The compounds according to the invention, formulated in the form of wettable powders (WP) or as emulsifiable concentrates (EC), were applied to the surface of the covering soil as an aqueous suspension or as an emulsion, with the addition of 0.5% of an additive, at an application rate of 600 litres of water per hectare (converted). Following treatment, the pots were placed in a greenhouse and kept under optimum growth conditions for the test plants. The visual grading of the damage to the test plants was carried out after ca. 3 weeks in comparison to untreated controls (herbicidal effect in percent (%): 100% effect=plants have died, 0% effect=as control plants). Tables A1 to A11 below, show the effects of selected compounds of the general formula (I) according to Table 1 on various harmful plants and an application rate corresponding to 1280 g/ha obtained by the experimental procedure mentioned above.

[2] = test system: Poa annua (POAAN); assay: Herbicidal pre-emergence action, 320 g/ha, POAAN; conditions: visual grading after ca. 3 weeks
Source text: as §1, with “plants).” for “plants). Tables A1 to A11 below, show the effects of selected compounds of the general formula (I) according to Table 1 on various harmful plants and an application rate corresponding to 1280 g/ha obtained by the experimental procedure mentioned above.”
Tables C1 to C6 below, show the effects of selected compounds of the general formula (I) according to Table 1 on various harmful plants using an application rate corresponding to 320 g/ha obtained by the experimental procedure mentioned above.

[3] = test system: Poa annua (POAAN); assay: Herbicidal pre-emergence action, 1280 g/ha (Table A7); conditions: visual grading after ca. 3 weeks vs untreated controls
Summary of the method: (§2)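 Pre-emergence soil-surface spray, sandy loam, mono-/dicot double sowings per pot; WP or EC formulations, aqueous, +0.5% additive, 600 L/ha water. Greenhouse, optimum conditions. Visual % damage vs untreated at ca. 3 wk (100% = dead).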

[4] = test system: Matricaria inodora (MATIN); assay: Herbicidal post-emergence action, 320 g/ha, MATIN; conditions: visual grading after ca. 3 weeks
Summary of the method: (§3)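 Post-emergence spray at single-leaf stage; WP/EC in aqueous suspension/emulsion, 0.5% additive, 600 L water/ha. Greenhouse ~3 wk, visual rating vs untreated: 0% = as control, 100% = plants dead.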

[5] = test system: Echinochloa crus-galli (ECHCG); assay: Herbicidal post-emergence action, 320 g/ha, ECHCG; conditions: visual grading after ca. 3 weeks
Source text: Seeds of mono- and dicotyledonous weed plants were sown in plastic pots (double sowings with one species of mono- and one species of dicotyledonous weed plants per pot), in sandy loam, covered with soil and grown under controlled growth conditions. 2 to 3 weeks after sowing, the test plants were sprayed in the single-leaf stage. The compounds according to the invention, formulated in the form of wettable powders (WP) or as emulsifiable concentrates (EC), were sprayed onto the green plant parts as an aqueous suspension or as an emulsion, with the addition of 0.5% of an additive, at an application rate of 600 litres of water per hectare (converted). The test plants were placed in the greenhouse for ca. 3 weeks under optimum growth conditions, and then the effect of the preparations was assessed visually in comparison with untreated controls (herbicidal effect in percent (%): 100% effect=plants have died, 0% effect=as control plants).
Tables D1 to D8 below, show the effects of selected compounds of the general formula (I) according to Table 1 on various harmful plants using an application rate corresponding to 320 g/ha obtained by the experimental procedure mentioned above.

[6] = test system: Amaranthus retroflexus (AMARE); assay: Herbicidal post-emergence action, 1280 g/ha, AMARE; conditions: visual grading vs untreated controls
Summary of the method: (§4)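 Pot-grown weeds in sandy loam sprayed post-emergence at the single-leaf stage, 2–3 weeks after sowing, with WP or EC formulations plus 0.5% additive in 600 L water/ha at 1280 g/ha. After ca. 3 weeks in the greenhouse, damage scored visually as % effect versus untreated controls (100% = plants dead).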

[7] = test system: Veronica persica (VERPE); assay: Herbicidal post-emergence action, 1280 g/ha, VERPE; conditions: visual grading vs untreated controls
Summary of the method: as §4

[8] = test system: Stellaria media (STEME); assay: Herbicidal post-emergence action, 320 g/ha, STEME; conditions: visual grading after ca. 3 weeks
Summary of the method: as §3

[9] = test system: Echinochloa crus-galli (ECHCG); assay: Herbicidal post-emergence action, 1280 g/ha (Table B3); conditions: visual assessment after ca. 3 weeks vs untreated controls
Summary of the method: (§5)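 Post-emergence greenhouse pot test: weeds in sandy loam sprayed at single-leaf stage, 2–3 weeks after sowing, with WP or EC formulations plus 0.5% additive at 600 L water/ha. Effect scored visually ca. 3 weeks later versus untreated controls, 0% = as control, 100% = plants dead.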

[10] = test system: Setaria viridis (SETVI); assay: Herbicidal post-emergence action, 1280 g/ha (Table B8); conditions: visual assessment after ca. 3 weeks vs untreated controls
Summary of the method: as §5

[11] = test system: Stellaria media (STEME); assay: Herbicidal post-emergence action, 1280 g/ha (Table B9); conditions: visual assessment after ca. 3 weeks vs untreated controls
Summary of the method: as §5

[12] = test system: Amaranthus retroflexus (AMARE); assay: Herbicidal post-emergence action, 320 g/ha, AMARE; conditions: visual grading after ca. 3 weeks
Summary of the method: as §3

[13] = test system: Matricaria inodora (MATIN); assay: Herbicidal post-emergence action, 1280 g/ha (Table B6); conditions: visual assessment after ca. 3 weeks vs untreated controls
Summary of the method: as §5

[14] = test system: Kochia scoparia (KCHSC); assay: Herbicidal post-emergence action, 1280 g/ha (Table B4); conditions: visual assessment after ca. 3 weeks vs untreated controls
Summary of the method: as §5

[15] = test system: Kochia scoparia (KCHSC); assay: Herbicidal post-emergence action, 320 g/ha, KCHSC; conditions: visual grading after ca. 3 weeks
Summary of the method: as §3

[16] = test system: Matricaria inodora (MATIN); assay: Herbicidal pre-emergence action, 1280 g/ha (Table A6); conditions: visual grading after ca. 3 weeks vs untreated controls
Summary of the method: as §2

[17] = test system: Digitaria sanguinalis (DIGSA); assay: Herbicidal pre-emergence action, 1280 g/ha (Table A3); conditions: visual grading after ca. 3 weeks vs untreated controls
Source text: as §1

[18] = test system: Amaranthus retroflexus (AMARE); assay: Herbicidal pre-emergence action, 1280 g/ha (Table A11); conditions: visual grading after ca. 3 weeks vs untreated controls
Summary of the method: as §2

[19] = test system: Kochia scoparia (KCHSC); assay: Herbicidal pre-emergence action, 1280 g/ha (Table A4); conditions: visual grading after ca. 3 weeks vs untreated controls
Summary of the method: as §2

[20] = test system: Abutilon theophrasti (ABUTH); assay: Herbicidal post-emergence action, 1280 g/ha (Table B1); conditions: visual assessment after ca. 3 weeks vs untreated controls
Summary of the method: as §5

[21] = test system: Lolium rigidum (LOLRI); assay: Herbicidal pre-emergence action, 1280 g/ha (Table A5); conditions: visual grading after ca. 3 weeks vs untreated controls
Summary of the method: as §2

[22] = test system: Lolium rigidum (LOLRI); assay: Herbicidal post-emergence action, 320 g/ha, LOLRI; conditions: visual grading after ca. 3 weeks
Summary of the method: as §3

[23] = test system: Lolium rigidum (LOLRI); assay: Herbicidal pre-emergence action, 320 g/ha (Table C2); conditions: visual grading after ca. 3 weeks vs untreated controls
Summary of the method: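 Applied pre-emergence to the surface of soil covering weed seeds sown in sandy loam, as WP or EC formulations in water with 0.5% additive at 600 L/ha. Greenhouse-grown; damage graded visually at ca. 3 weeks as percent of untreated controls (100% = plants died).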

[24] = test system: Lolium rigidum (LOLRI); assay: Herbicidal post-emergence action, 1280 g/ha (Table B5); conditions: visual assessment after ca. 3 weeks vs untreated controls
Summary of the method: as §5

[25] = test system: Abutilon theophrasti (ABUTH); assay: Herbicidal post-emergence action, 320 g/ha, ABUTH; conditions: visual grading after ca. 3 weeks
Summary of the method: as §3

[26] = test system: Stellaria media (STEME); assay: Herbicidal pre-emergence action, 1280 g/ha (Table A9); conditions: visual grading after ca. 3 weeks vs untreated controls
Summary of the method: as §2

[27] = test system: Abutilon theophrasti (ABUTH); assay: Herbicidal pre-emergence action, 1280 g/ha (Table A1); conditions: visual grading after ca. 3 weeks vs untreated controls
Summary of the method: as §2

[28] = test system: Stellaria media (STEME); assay: Herbicidal pre-emergence action, 320 g/ha, STEME; conditions: visual grading after ca. 3 weeks
Summary of the method: (§6)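 Weed seeds sown in sandy loam pots; WP or EC formulations applied pre-emergence to the covering soil surface at 320 g/ha with 0.5% additive in 600 L water/ha. Greenhouse growth; visual damage scored after ca. 3 weeks versus untreated controls (100% = plants died, 0% = as control).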

[29] = test system: Setaria viridis (SETVI); assay: Herbicidal pre-emergence action, 1280 g/ha (Table A8); conditions: visual grading after ca. 3 weeks vs untreated controls
Summary of the method: as §2

[30] = test system: Amaranthus retroflexus (AMARE); assay: Herbicidal pre-emergence action, 320 g/ha, AMARE; conditions: visual grading after ca. 3 weeks
Summary of the method: as §6

SMILES	herbicidal effect POAAN [2]	herbicidal effect POAAN [3]	herbicidal effect MATIN [4]	herbicidal effect ECHCG [5]	herbicidal effect AMARE [6]	herbicidal effect VERPE [7]	herbicidal effect STEME [8]	herbicidal effect ECHCG [9]	herbicidal effect STEME [11]	herbicidal effect AMARE [12]	herbicidal effect MATIN [13]	herbicidal effect KCHSC [14]	herbicidal effect KCHSC [15]	herbicidal effect MATIN [16]	herbicidal effect AMARE [18]	herbicidal effect KCHSC [19]	herbicidal effect ABUTH [20]	herbicidal effect LOLRI [21]	herbicidal effect LOLRI [22]	herbicidal effect LOLRI [24]	other results
Cc1nn(C)c(=O)c(Oc2ccccc2OC(F)(F)F)c1O [Example I-008]	100%	100%	–	–	–	–	–	–	–	–	–	–	–	–	–	–	–	–	–	–	herbicidal effect ALOMY [1]: 100%
Cc1nn(C)c(=O)c(Oc2ccc(Cl)cc2Cl)c1OC(=O)C1CCC1 [Example I-064]	–	–	90%	100%	100%	90%	90%	100%	100%	100%	100%	100%	100%	–	–	–	–	–	–	–	herbicidal effect SETVI [10]: 90%
Cc1nn(C)c(=O)c(Oc2cc(Cl)c(Cl)c(Cl)c2)c1O [Example I-077]	–	100%	–	–	–	–	90%	90%	100%	–	–	–	–	100%	100%	90%	–	–	–	–	herbicidal effect DIGSA [17]: 100%
Cc1nn(C)c(=O)c(Oc2cc(Cl)ccc2Cl)c1O [Example I-016]	–	–	90%	90%	100%	90%	100%	90%	100%	100%	90%	100%	90%	100%	90%	–	100%	100%	90%	90%	herbicidal effect LOLRI [23]: 90%; herbicidal effect ABUTH [25]: 100%; herbicidal effect STEME [26]: 100%
CCOC(=O)Oc1c(C)nn(C)c(=O)c1Oc1ccccc1C1CC1 [Example I-012]	90%	90%	–	–	90%	90%	100%	–	100%	–	100%	100%	100%	90%	100%	100%	100%	100%	100%	100%	herbicidal effect ABUTH [27]: 100%; herbicidal effect STEME [28]: 90%; herbicidal effect ABUTH [25]: 100%; herbicidal effect STEME [26]: 100%; herbicidal effect SETVI [29]: 100%; herbicidal effect AMARE [30]: 100%
